Source: patent publication US10251843B2, “Crosslinked nanoparticle composition” (priority 2015, dated 2019)

Legend:
[1] = In vivo pharmacokinetics, serum amoxicillin after oral gavage; conditions: ICR mice
Protocol: The experiments were performed on male and female ICR mice (6-8 weeks) to evaluate the amoxicillin concentration in serum. […] Each testing group contained 10 mice (five male and five female). The concentration of amoxicillin in each collected serum sample was determined by HPLC.

[2] = mice, reported; cited from earlier work

Which “time at which serum concentration of amoxicillin peaked” value ([1]; 2 mg amoxicillin) does the source give for `CC1(C)S[C@@H]2[C@H](NC(=O)[C@H](N)c3ccc(O)cc3)C(=O)N2[C@H]1C(=O)O.O.O.O` [free amoxicillin, (2S,5R,6R)-6-[(R)-(−)-2-amino-2-(p-hydroxyphenyl)acetamido]-3,3-dimethyl-7-oxo-4-thia-1-azabicyclo[3.2.0]heptane-2-carboxylic acid trihydrate] here?
Its value is 15 min.

And the “serum concentration as % of the peak value” ([1]; after 1 hour)?
The value was “below 50%”.

And the “serum concentration as % of the peak value” ([1]; after 2 hours)?
The value was “below 20%”.

And the “area under the curve (total measured amount of drug in the circulation)” value ([1]; compared with the nanoparticle formulation)?
The value was “smaller area”.

What about the “plasma half-life of amoxicillin” value [2] of the same compound?
Its value is “about 40 minutes”.
